Results on twelve molecules are retold here after patent publication US20260223850A1, “SUBSTITUTED PYRROLIDONE COMPOUND, PREPARATION METHOD THEREFOR, COMPOSITION AND APPLICATION THEREOF” (QINGDAO KINGAGROOT CHEMICAL COMPOUND CO., LTD., priority 2023, published 2026).

Common to all, as to type: in vivo
One data set deals with Echinochloa phyllopogon. The data set can be described thus: Seedling stage sealing experiment for water-seeding. The settings on record: 120 g a.i./ha, 15 days, fresh weight control rate. An outline of the steps:
(§1)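 Seeds sown on soil in pots kept moist in water-filled boxes, then sprayed with acetone/water compound solution at 120, 60, 30 and 15 g a.i./ha, in triplicate. Effect scored after 15 days in greenhouse as 0–9 levels of fresh-weight growth control, averaged.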

In the next data set the test system is Echinochloa crusgalli. Described as above. Conditions: 120 g a.i./ha, 15 days, fresh weight control rate.
The next data set has as its system Huaidao (rice cultivar). The data set can be described thus: Seedling stage sealing experiment for water-seeding (crop safety). The settings on record: 120 g a.i./ha, 15 days, fresh weight control rate; for Huaidao (rice cultivar) plant damage level (growth control rate): spray, seedling stage sealing for water-seeding; for Huaidao (rice cultivar) plant damage level: seedling stage sealing. Summed up:
as §1

Where [1] appears, read: spray, seedling stage sealing for water-seeding.

`CO/N=C/c1c(NC(=O)[C@H]2C(=O)N(C)C[C@@H]2c2cc(C)cc(C)c2)cnn1C` [501′]: the “Echinochloa phyllopogon activity level (growth control rate)” value (from here on “Echinochloa phyllopogon activity level”) with Echinochloa phyllopogon (setting [1]) is 7 (Level 7: growth control rate greater than or equal to 80% and less than 90%). For the same molecule, in the data set on Echinochloa crusgalli (setting [1]), the “Echinochloa crusgalli activity level (growth control rate)” value (“Echinochloa crusgalli activity level” below) was found to be 9. Also, in the data set on Huaidao (rice cultivar), the “Huaidao (rice cultivar) plant damage level (growth control rate)” value (“Huaidao … (growth control rate)” for short) is on record as 0.

On to `CCc1cc(C)cc([C@H]2CN(C)C(=O)[C@@H]2C(=O)Nc2cnn(C(F)F)c2Cl)c1` [438′], for which the “Echinochloa phyllopogon activity level” value with Echinochloa phyllopogon (seedling stage sealing) is listed as 9. The “Echinochloa crusgalli activity level” value in the data set with Echinochloa crusgalli (seedling stage sealing) came out at 9. For the same molecule, in the data set on Huaidao (rice cultivar), the “Huaidao (rice cultivar) plant damage level” value is 2 (Level 2: growth control rate greater than or equal to 10% and less than 20%).

For the molecule `CN1C[C@H](c2cc(C(F)(F)F)cc(C(F)(F)F)c2)[C@@H](C(=O)Nc2cnn(C)c2C2CC2)C1=O` [510′], the “Echinochloa phyllopogon activity level” value in the data set on Echinochloa phyllopogon (setting [1]) came to 9. Besides, in the data set on Echinochloa crusgalli (setting [1]), the “Echinochloa crusgalli activity level” value is given as 9. In addition, the “Huaidao … (growth control rate)” value in the data set on Huaidao (rice cultivar) is 2 (Level 2: growth control rate greater than or equal to 10% and less than 20%).

On to `CCc1cc(CC)cc([C@H]2CN(C)C(=O)[C@@H]2C(=O)Nc2cnn(C)c2Cl)c1` [439′], for which the “Echinochloa phyllopogon activity level” value with Echinochloa phyllopogon (seedling stage sealing) is 9. Moreover, in the data set with Echinochloa crusgalli (seedling stage sealing), the “Echinochloa crusgalli activity level” value came out at 9. Moreover, the “Huaidao (rice cultivar) plant damage level” value in the data set on Huaidao (rice cultivar) was 2 (Level 2: growth control rate greater than or equal to 10% and less than 20%).

Turning to `CN1C[C@H](c2cc(Cl)cc(Cl)c2)[C@@H](C(=O)Nc2cnn(C(F)F)c2Cl)C1=O` [442′], the “Echinochloa phyllopogon activity level” value in the data set on Echinochloa phyllopogon (seedling stage sealing) was 8 (Level 8: growth control rate greater than or equal to 90% and less than 100%). Moreover, in the data set on Echinochloa crusgalli (seedling stage sealing), the “Echinochloa crusgalli activity level” value was 8 (Level 8: growth control rate greater than or equal to 90% and less than 100%). The “Huaidao (rice cultivar) plant damage level” value in the data set with Huaidao (rice cultivar) came out at 0.

Take `C=Cc1c(NC(=O)[C@H]2C(=O)N(C)C[C@@H]2c2cccc(C)c2)cnn1C(F)F` [468′]: the “Echinochloa phyllopogon activity level” value in the data set on Echinochloa phyllopogon (setting [1]) came to 9. Further, in the data set on Echinochloa crusgalli (setting [1]), the “Echinochloa crusgalli activity level” value was 9. Moreover, the “Huaidao … (growth control rate)” value in the data set with Huaidao (rice cultivar) came to 0.

As for `Cc1cc(Cl)cc([C@H]2CN(C)C(=O)[C@@H]2C(=O)Nc2cnn(C(F)F)c2Cl)c1` [505′], the “Echinochloa phyllopogon activity level” value in the data set with Echinochloa phyllopogon (setting [1]) is given as 9. Moreover, the “Echinochloa crusgalli activity level” value with Echinochloa crusgalli (setting [1]) is 9. In the data set with Huaidao (rice cultivar), the “Huaidao … (growth control rate)” value is 2 (Level 2: growth control rate greater than or equal to 10% and less than 20%).

As to `COc1cccc([C@H]2CN(C)C(=O)[C@@H]2C(=O)Nc2cnn(C)c2C(F)(F)F)c1` [485′], the “Echinochloa phyllopogon activity level” value in the data set on Echinochloa phyllopogon (setting [1]) is 9. Besides, the “Echinochloa crusgalli activity level” value in the data set on Echinochloa crusgalli (setting [1]) amounted to 9. The “Huaidao … (growth control rate)” value with Huaidao (rice cultivar) is recorded as 0.

Take `Cc1cc(C)cc([C@H]2CN(C)C(=O)[C@@H]2C(=O)Nc2cnn(C(F)F)c2C)c1` [494′]: the “Echinochloa phyllopogon activity level” value in the data set with Echinochloa phyllopogon (setting [1]) came out at 9. Besides, in the data set on Echinochloa crusgalli (setting [1]), the “Echinochloa crusgalli activity level” value stood at 9. For the same molecule, in the data set on Huaidao (rice cultivar), the “Huaidao … (growth control rate)” value is 2 (Level 2: growth control rate greater than or equal to 10% and less than 20%).

For `CN1C[C@H](c2cc(Br)cc(C(F)(F)F)c2)[C@@H](C(=O)Nc2cnn(C)c2C2CC2)C1=O` [514′], the “Echinochloa phyllopogon activity level” value with Echinochloa phyllopogon (setting [1]) is 6 (Level 6: growth control rate greater than or equal to 70% and less than 80%). Besides, the “Echinochloa crusgalli activity level” value with Echinochloa crusgalli (setting [1]) is 9. The “Huaidao … (growth control rate)” value with Huaidao (rice cultivar) amounted to 0.

As to `COc1cc(OC)cc([C@H]2CN(C)C(=O)[C@@H]2C(=O)Nc2cnn(C)c2Cl)c1` [302′], the “Echinochloa phyllopogon activity level” value in the data set with Echinochloa phyllopogon (seedling stage sealing) was 6 (Level 6: growth control rate greater than or equal to 70% and less than 80%). Besides, the “Echinochloa crusgalli activity level” value in the data set on Echinochloa crusgalli (seedling stage sealing) stood at 9. In the data set on Huaidao (rice cultivar), the “Huaidao (rice cultivar) plant damage level” value was determined as 0.

In the case of `Cc1cc(Cl)cc([C@H]2CN(C)C(=O)[C@@H]2C(=O)Nc2cnn(C)c2C2CC2)c1` [506′], the “Echinochloa phyllopogon activity level” value in the data set with Echinochloa phyllopogon (setting [1]) turned out to be 9. Moreover, in the data set with Echinochloa crusgalli (setting [1]), the “Echinochloa crusgalli activity level” value is recorded as 9. For the same molecule, the “Huaidao … (growth control rate)” value in the data set on Huaidao (rice cultivar) is 0.
